Assay results published in US20120208827A1, “BENZIMIDAZOLES AS FATTY ACID SYNTHASE INHIBITORS” (GlaxoSmithKline LLC, priority 2009, published 2012).

These compounds were tested against FAS (Homo sapiens, UniProt P49327) (assay: FAS assay (Assay #1 residual NADPH detection or Assay #2 CoA detection with thio-reactive coumarin dye)). Conditions: tested generally according to the assays described (Assay #1 or #2); in at least one experimental run; read-out: pIC50 value (inhibition of FAS) (converted).
FAS, sequence (P49327 whole entry): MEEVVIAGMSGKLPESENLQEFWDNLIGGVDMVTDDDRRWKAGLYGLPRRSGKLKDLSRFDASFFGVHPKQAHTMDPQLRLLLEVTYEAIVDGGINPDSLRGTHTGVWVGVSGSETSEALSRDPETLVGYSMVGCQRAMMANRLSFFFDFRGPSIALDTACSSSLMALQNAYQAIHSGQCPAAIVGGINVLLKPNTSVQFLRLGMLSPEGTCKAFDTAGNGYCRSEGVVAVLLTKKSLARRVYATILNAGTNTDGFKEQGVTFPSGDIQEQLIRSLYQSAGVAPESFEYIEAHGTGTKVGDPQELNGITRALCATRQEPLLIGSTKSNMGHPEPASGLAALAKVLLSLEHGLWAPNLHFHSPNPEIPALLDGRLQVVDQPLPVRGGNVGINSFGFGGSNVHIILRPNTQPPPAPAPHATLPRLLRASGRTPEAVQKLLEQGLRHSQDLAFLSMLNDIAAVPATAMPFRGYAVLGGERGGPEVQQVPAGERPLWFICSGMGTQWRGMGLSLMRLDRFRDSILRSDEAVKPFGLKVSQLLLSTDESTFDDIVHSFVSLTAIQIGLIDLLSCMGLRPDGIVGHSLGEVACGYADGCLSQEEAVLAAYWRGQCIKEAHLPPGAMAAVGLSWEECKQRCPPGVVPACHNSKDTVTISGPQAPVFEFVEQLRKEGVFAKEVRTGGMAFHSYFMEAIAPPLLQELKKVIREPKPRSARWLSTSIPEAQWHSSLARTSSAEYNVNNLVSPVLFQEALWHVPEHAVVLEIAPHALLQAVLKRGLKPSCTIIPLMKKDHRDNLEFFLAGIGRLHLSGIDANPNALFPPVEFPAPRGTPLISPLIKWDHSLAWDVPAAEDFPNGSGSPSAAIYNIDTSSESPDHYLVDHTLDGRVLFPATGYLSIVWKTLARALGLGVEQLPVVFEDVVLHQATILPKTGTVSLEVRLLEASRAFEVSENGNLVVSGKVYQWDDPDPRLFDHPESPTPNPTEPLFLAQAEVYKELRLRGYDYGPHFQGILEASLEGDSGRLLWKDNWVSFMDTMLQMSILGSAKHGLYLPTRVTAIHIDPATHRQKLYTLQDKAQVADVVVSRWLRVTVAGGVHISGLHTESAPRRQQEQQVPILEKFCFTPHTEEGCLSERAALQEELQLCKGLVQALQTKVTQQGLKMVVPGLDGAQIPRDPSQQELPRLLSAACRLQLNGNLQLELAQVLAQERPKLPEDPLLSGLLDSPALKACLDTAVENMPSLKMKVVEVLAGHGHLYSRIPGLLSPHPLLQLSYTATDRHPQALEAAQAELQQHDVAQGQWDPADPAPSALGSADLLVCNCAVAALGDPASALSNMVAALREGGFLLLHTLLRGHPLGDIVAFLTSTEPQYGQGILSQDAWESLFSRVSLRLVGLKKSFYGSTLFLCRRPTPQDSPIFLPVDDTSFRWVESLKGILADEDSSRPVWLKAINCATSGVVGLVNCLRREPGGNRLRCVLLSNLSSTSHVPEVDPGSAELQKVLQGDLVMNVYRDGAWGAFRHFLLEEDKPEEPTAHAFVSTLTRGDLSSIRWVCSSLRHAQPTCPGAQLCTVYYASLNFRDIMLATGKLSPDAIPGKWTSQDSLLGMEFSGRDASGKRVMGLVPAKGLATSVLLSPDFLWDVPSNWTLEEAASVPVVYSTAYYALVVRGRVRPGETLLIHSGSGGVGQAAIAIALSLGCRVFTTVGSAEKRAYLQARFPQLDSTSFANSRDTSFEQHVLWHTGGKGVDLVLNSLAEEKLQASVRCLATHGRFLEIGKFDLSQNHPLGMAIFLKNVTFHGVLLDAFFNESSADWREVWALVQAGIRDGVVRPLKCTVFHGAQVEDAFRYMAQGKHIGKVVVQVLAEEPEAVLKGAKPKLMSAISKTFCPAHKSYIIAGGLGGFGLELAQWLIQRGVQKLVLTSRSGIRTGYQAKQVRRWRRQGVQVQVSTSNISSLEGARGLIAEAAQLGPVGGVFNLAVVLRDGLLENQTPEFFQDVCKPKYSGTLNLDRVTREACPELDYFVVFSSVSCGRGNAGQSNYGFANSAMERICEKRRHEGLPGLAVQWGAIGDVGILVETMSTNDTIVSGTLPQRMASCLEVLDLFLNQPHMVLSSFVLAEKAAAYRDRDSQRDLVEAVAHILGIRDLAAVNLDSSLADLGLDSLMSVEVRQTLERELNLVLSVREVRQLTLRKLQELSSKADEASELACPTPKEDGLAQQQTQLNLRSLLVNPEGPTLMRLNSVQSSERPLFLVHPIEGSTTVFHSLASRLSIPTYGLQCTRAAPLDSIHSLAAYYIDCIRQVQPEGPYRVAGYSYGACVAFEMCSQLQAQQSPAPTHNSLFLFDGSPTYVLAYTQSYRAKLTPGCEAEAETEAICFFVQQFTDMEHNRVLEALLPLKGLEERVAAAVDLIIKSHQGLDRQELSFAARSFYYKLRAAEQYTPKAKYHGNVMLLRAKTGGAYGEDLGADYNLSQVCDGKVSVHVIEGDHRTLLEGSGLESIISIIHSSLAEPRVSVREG
Assay type: biochemical
Description: FAS activity was measured through one of the two following assays.
Inhibition of FAS activity can be measured based on the detection of residual NADPH substrate after the FAS assay is quenched. This assay is run as a 10 μL endpoint assay in 384-well format, where the reaction contains 20 μM malonyl-CoA, 2 μM acetyl-CoA, 30 μM NADPH and 40 nM FAS in 50 mM sodium phosphate, pH 7.0. The assay is run by sequentially dispensing 5 μl of a malonyl-CoA solution, then enzyme solution (containing the acetyl-CoA, and NADPH) into a black, low volume assay plate (Greiner 784076) pre-dispensed with […] compound solutions in DMSO. The reaction is incubated at ambient temperature for 60 minutes, then quenched with 5 μL of a developing solution composed of 90 μM resazurin, 0.3 IU/ml diaphorase in 50 mM sodium phosphate, pH 7.0. The developed reaction is read on a Molecular Devices Analyst or Acquest (or equivalent) plate reader using a 530 nm excitation wavelength filter, a 580 nm emission filter, and 561 nm dichroic filter. The test compounds are prepared in neat DMSO at a concentration of 10 mM. For inhibition curves, compounds are diluted using a three-fold serial dilution and tested at 11 concentrations (e.g. 25 μM-0.42 nM). Curves are analysed using ActivityBase and XLfit, and results are expressed as pIC50 values.
Inhibition of FAS can also be quantified based on the detection of the CoA products with a thio-reactive coumarin dye. This assay is run as a 10 μL endpoint assay in 384-well format, where the reaction contains 20 μM malonyl-CoA, 20 μM acetyl-CoA, 40 μM NADPH and 2 nM FAS in 50 mM sodium phosphate, pH 7.0, and 0.04% Tween-20. The assay is run by adding 5 μL enzyme solution to a black, low volume assay plate (Greiner 784076) pre-dispensed with 100 nl compound solutions in DMSO. After 30 minutes, […] substrate is added, and the reaction incubated at ambient temperature for an additional 60 minutes. The reaction is then quenched with 10 μL of 6M guanidine-HCl containing 50 μM CPM (7-diethylamino-3-(4′-maleimidylphenyl)-4-methylcoumarin (CPM; thio-reactive dye), and incubated for 30 minutes. The plate is read on an Envision (PerkinElmer) or equivalent plate reader using a 380 nm excitation wavelength filter, and a 486 nm emission filter. Data fitting and compound preparations are done as described above.

Row | SMILES | IC50 [nM]
1 | O=C(C1CC1)N1CC[C@@H](Cn2c(-c3ccc(-c4ccc5ncsc5c4)cc3)nc3ccccc32)C1 [Example 4, 6-[4-(1-{[(3S)-1-(Cyclopropylcarbonyl)-3-pyrrolidinyl]methyl}-1H-benzimidazol-2-yl)phenyl]-1,3-benzothiazole] | 55
2 | O=C(C1CC1)N1CC[C@@H](Cn2c(-c3ccc(-c4ccc5cc[nH]c5c4)cc3)nc3c(C(F)(F)F)cccc32)C1 [Example 24, 1-{[(3S)-1-(Cyclopropylcarbonyl)-3-pyrrolidinyl]methyl}-2-[4-(1H-indol-6-yl)phenyl]-4-(trifluoromethyl)-1H-benzimidazole] | 49
3 | O=C(C1CC1)N1CC[C@@H](Cn2c(-c3ccc(-c4ccccc4)cc3)nc3c(Br)cccc32)C1 [Example 33, 2-(4-Biphenylyl)-4-bromo-1-{[(3S)-1-(cyclopropylcarbonyl)-3-pyrrolidinyl]methyl}-1H-benzimidazole] | 135
4 | Cc1ccc2c(c1)nc(-c1ccc(-c3ccc4[nH]ncc4c3)cc1)n2C[C@@H]1CCN(C(=O)C2CC2)C1 [Example 49, 5-[4-(1-{[(3S)-1-(Cyclopropylcarbonyl)-3-pyrrolidinyl]methyl}-5-methyl-1H-benzimidazol-2-yl)phenyl]-1H-indazole] | 26.9
5 | O=C(C1CC1)N1CC[C@@H](Cn2c(-c3ccc(-c4ccc5[nH]ccc5c4)cc3)nc3cc(C(F)(F)F)ccc32)C1 [Example 62, 1-{[(3S)-1-(Cyclopropylcarbonyl)-3-pyrrolidinyl]methyl}-2-[4-(1H-indol-5-yl)phenyl]-5-(trifluoromethyl)-1H-benzimidazole] | 30.9
6 | COc1ccc2nc(-c3ccc(-c4ccc5cc[nH]c5c4)cc3)n(C[C@@H]3CCN(C(=O)C4CC4)C3)c2c1 [Example 66, 1-{[(3S)-1-(Cyclopropylcarbonyl)-3-pyrrolidinyl]methyl}-2-[4-(1H-indol-6-yl)phenyl]-6-(methyloxy)-1H-benzimidazole] | 21.9
7 | Cc1ccc2nc(-c3ccc(-c4ccc5occc5c4)cc3)n(C[C@@H]3CCN(C(=O)C4CC4)C3)c2c1 [Example 83, 2-[4-(1-Benzofuran-5-yl)phenyl]-1-{[(3S)-1-(cyclopropylcarbonyl)-3-pyrrolidinyl]methyl}-6-(methyl)-1H-benzimidazole] | 50.1
8 | O=C(C1CC1)N1CC[C@@H](Cn2c(-c3ccc(-c4ccc5cc[nH]c5c4)cc3)nc3ccc(C(F)(F)F)cc32)C1 [Example 88, 1-{[(3S)-1-(Cyclopropylcarbonyl)-3-pyrrolidinyl]methyl}-2-[4-(1H-indol-6-yl)phenyl]-6-(trifluoromethyl)-1H-benzimidazole] | 43.7
9 | CN1CCN(C(=O)c2ccc3nc(-c4ccc(-c5ccc6cc[nH]c6c5)cc4)n(C[C@@H]4CCN(C(=O)C5CC5)C4)c3c2)CC1 [Example 106, 1-{[(3S)-1-(Cyclopropylcarbonyl)-3-pyrrolidinyl]methyl}-2-[4-(1H-indol-6-yl)phenyl]-6-[(4-methyl-1-piperazinyl)carbonyl]-1H-benzimidazole] | 55
10 | CN1CCN(C(=O)c2ccc3nc(-c4ccc(-c5ccc6[nH]ccc6c5)cc4)n(C[C@@H]4CCN(C(=O)C5CC5)C4)c3c2)CC1 [Example 107, 1-{[(3S)-1-(Cyclopropylcarbonyl)-3-pyrrolidinyl]methyl}-2-[4-(1H-indol-5-yl)phenyl]-6-[(4-methyl-1-piperazinyl)carbonyl]-1H-benzimidazole] | 10
11 | O=C(C1CC1)N1CC[C@@H](Cn2c(-c3ccc(-c4ccc(F)cc4)cc3)nc3cccc(C(F)(F)F)c32)C1 [Example 117, 1-{[(3S)-1-(Cyclopropylcarbonyl)-3-pyrrolidinyl]methyl}-2-(4′-fluoro-4-biphenylyl)-7-(trifluoromethyl)-1H-benzimidazole] | 1450
